Like-named read-outs stand apart in the source and are kept apart here.
Assays:
STAT3 (aa 127-722) = target: T1, STAT3 (aa 127-722) (Homo sapiens, UniProt P40763); assay: SPR assay of STAT3 binding to immobilized EGFR pY1068 phosphododecapeptide; details: for inhibition at 10 µM / inhibition at 100 µM / inhibition of STAT3 binding to EGFR pY-peptide: SPR; for inhibition at 10 µM / inhibition at 100 µM: read-out: inhibition of STAT3 binding to EGFR pY-peptide; for % of max binding at 10 μm: pEGFRp-STAT3 binding (SPR) at pH 8, compound 10 μm; for % of max binding at 100 μm: pEGFRp-STAT3 binding (SPR) at pH 8, compound 100 μm; for inhibition at 100 µM / inhibition of STAT3 binding to EGFR pY-peptide: 100 μM
T1 construct: STAT3 (aa 127-722) at a concentration of 200 nM
T1 sequence (P40763 127-722 isoform P40763-3 limits assumed, species assumed): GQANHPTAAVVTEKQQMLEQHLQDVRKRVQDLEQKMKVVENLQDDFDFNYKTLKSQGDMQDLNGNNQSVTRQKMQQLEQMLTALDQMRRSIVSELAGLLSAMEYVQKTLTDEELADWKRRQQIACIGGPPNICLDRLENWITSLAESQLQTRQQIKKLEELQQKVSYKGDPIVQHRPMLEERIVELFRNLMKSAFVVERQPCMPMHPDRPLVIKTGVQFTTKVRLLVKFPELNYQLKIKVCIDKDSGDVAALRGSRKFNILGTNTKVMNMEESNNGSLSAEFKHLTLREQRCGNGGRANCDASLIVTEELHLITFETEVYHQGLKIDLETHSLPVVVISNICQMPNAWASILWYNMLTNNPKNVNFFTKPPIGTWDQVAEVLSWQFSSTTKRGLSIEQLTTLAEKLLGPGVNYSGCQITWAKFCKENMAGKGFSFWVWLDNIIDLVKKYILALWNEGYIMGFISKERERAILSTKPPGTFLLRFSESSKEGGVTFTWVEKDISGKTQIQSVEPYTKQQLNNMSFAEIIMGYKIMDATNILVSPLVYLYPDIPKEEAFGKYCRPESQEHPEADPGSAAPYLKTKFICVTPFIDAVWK
Procedure: Surface plasmon resonance (SPR) assay of STAT3 binding pY-peptide. STAT3 (aa 127-722) at a concentration of 200 nM in 20 mM Tris buffer (pH 8) was pre-incubated without or with compounds prior to injection onto an SA chip immobilized with phosphorylated and control non-phosphorylated biotinylated EGFR derived dodecapeptides based on sequence surrounding Y1068 (Shao et al., 2004), on a Biacore 3000 biosensor (Biacore inc., Piscataway N.J.) and analyzed as described (Bharadwaj et al., 2016).
Surface Plasmon Resonance (SPR) was performed on the 24 compounds to determine their ability to block binding of purified STAT3 to an immobilized phosphododecapeptide based on EGFR Y1068 (EGFR pY-peptide), as described (Xu et al., 2009).

MDA-MB-231 cells = assay: Anchorage-independent and dependent cell growth (MTT), MDA-MB-231; assay type: cell-based; details: NA = No Activity
Procedure: (§1) MDA-MB-231 cells were cultured for 48 hrs in complete DMEM with 10% FBS±compound (0/0.1/0.3/1/3/10/100 μM) in cell-culture-treated plates and viable cells quantitated using MTT. Relative % viability (viability after any treatment÷viability of untreated cells×100) was plotted as a function of Log [M] compound, and IC50 values calculated using GraphPad.
as §1, with “72” for “48”, “cell-culture-treated ultra-low attachment 96-well” for “cell-culture-treated”
(§2) Anchorage-independent and dependent cell growth. Cells were cultured in triplicates in complete DMEM±drug, in ultra-low attachment 96 well plates for 72 hrs or cell-culture treated plates for 48 hrs and viable cells were quantitated using MTT. Optical density (OD) was measured at 590 nm using a 96-well multi-scanner (Synergy H1 microplate reader, BioTek Inc, VT, USA). Relative % viability (viability after any treatment÷viability of untreated cells×100) was plotted along Y-axis. At least 2 replicates experiments were performed and were used for IC50 calculation using GraphPad software.

G-CSF-stimulated pSTAT3 = assay: Inhibition of G-CSF-stimulated pSTAT3 in Kasumi-1 cells (Luminex, pSTAT3/GAPDH); assay type: cell-based; details: for activity at 10 µM: Kasumi 1, read-out: % of Control Stimulated pSTAT3; for activity at 10 µM / % of Control Stimulated pSTAT3: single concentration of 10 μM, G-CSF 100 ng/ml, pSTAT3/GAPDH relative to DMSO treated cells; for inhibition at 10 µM: Kasumi-1 cells, read-out: inhibition of G-CSF-induced pY-STAT3
Procedure: […] Total protein was assayed for pSTAT3 and GAPDH levels by Luminex. GAPDH-normalized pSTAT3 values were divided by the same for untreated cells and expressed as percentage. These values were plotted as a function of Log [M] compound, and IC50 calculated using GraphPad. Data from representative experiments from at least two repeats is shown.
Luminex bead-based assay. Luminex bead-based assays were used to determine levels of pSTAT3, pSTAT1, pSTAT5, and GAPDH, as described (Bharadwaj et al., 2015). […]

MDA-MB-468 cells = assay: Anchorage-independent and dependent cell growth (MTT), MDA-MB-468; assay type: cell-based; details: NA = No Activity
Procedure: as §1, with “MDA-MB-468” for “MDA-MB-231”
as §1, with “MDA-MB-468” for “MDA-MB-231”, “72” for “48”, “cell-culture-treated ultra-low attachment 96-well” for “cell-culture-treated”, “treatment viability” for “treatment÷viability”
as §2

[1] = Homo sapiens, MDA-MB-231, 72 h, anchorage independent, ultra-low attachment plates, 72 hrs, read-out: Growth AI IC50 231
[2] = Kasumi1 cells, G-CSF induced pSTAT3/GAPDH by Luminex
[3] = Homo sapiens, MDA-MB-468, 48 h, anchorage dependent, cell-culture treated plates, 48 hrs, read-out: Growth AD IC50 468
[4] = Homo sapiens, MDA-MB-468, 72 h, anchorage independent, ultra-low attachment plates, 72 hrs, read-out: Growth AI IC50 468
[5] = anchorage dependent, cell-culture treated plates, 48 hrs, read-out: Growth AD IC50 468
[6] = Homo sapiens, MDA-MB-231, 48 h, anchorage dependent, cell-culture treated plates, 48 hrs, read-out: Growth AD IC50 231
[7] = anchorage dependent, cell-culture treated plates, 48 hrs, read-out: Growth AD IC50 231
[8] = anchorage dependent, cell-culture treated plates, 48 hrs
[9] = anchorage independent, ultra-low attachment plates, 72 hrs

Structure (SMILES)	inhibition at 10 µM (STAT3 (aa 127-722)) [%]	inhibition at 100 µM (STAT3 (aa 127-722)) [%]	% of max binding at 10 μm (STAT3 (aa 127-722)) [%]	% of max binding at 100 μm (STAT3 (aa 127-722)) [%]	IC50 (MDA-MB-231 cells; [1]) [µM]	IC50 (MDA-MB-468 cells; [3]) [µM]	IC50 (MDA-MB-468 cells; [4]) [µM]	IC50 (MDA-MB-468 cells; [5]) [µM]	IC50 (MDA-MB-231 cells; [6]) [µM]	IC50 (MDA-MB-231 cells; [7]) [µM]	activity at 10 µM (G-CSF-stimulated pSTAT3; Homo sapiens, Kasumi1 cells) [%]	inhibition at 10 µM (G-CSF-stimulated pSTAT3; Homo sapiens) [%]	other results
COc1ccc(/C=C/C(=O)c2cc(Br)ccc(=O)c2O)cc1 [SPEC-8, 5-bromo-2-hydroxy-3-[3-(4-methoxyphenyl)acryloyl]-2,4,6-cycloheptatrien-1-one]	29 to 71	67 to 93	49.1	30.3	26.1						0	20 to 80	IC50 (G-CSF-stimulated pSTAT3; [2]): 4.1 µM
COc1ccc(Br)cc1/C=C/C(=O)c1ccc(NC(C)=O)cc1 [SPEC-29, N-(4-[(E)-3-(5-bromo-2-methoxyphenyl)prop-2-enoyl)phenyl]acetamide]	29 to 71	67 to 93	69.6	22.1	9.5 ± 4.1	2.4 to 12.1	1.8 to 11.1	2.4 ± 2.5	3 to 12.2	3 ± 2.2	0	20 to 80	IC50 (MDA-MB-468 cells; anchorage independent, ultra-low attachment plates, 72 hrs, read-out: Growth AI IC50 468): 1.8 ± 1.6 µM; inhibition of STAT3 binding to EGFR pY-peptide (STAT3 (aa 127-722)): 78%; IC50 (G-CSF-stimulated pSTAT3; [2]): 2.7 µM
COc1cc(/C=C2/SC(=O)NC2=O)ccc1OCc1ccc(Cl)cc1Cl [SPEC-98]	29 to 71	67 to 93	70.4	7.8		25.6 to 65.2	64.1 ± 3.1	32.5 ± 3.7	25.6 to 65.2	25.6 ± 3.9	20	20 to 80	
NC(=O)CCN1CCN(CCOC2Cc3cc(Cl)ccc3Sc3ccccc32)CC1 (centres unmarked) [SPEC-109]			97.1	82.3									% of Control Stimulated pSTAT3 (G-CSF-stimulated pSTAT3; Kasumi1 cells): 1%

Continued, in another order:

inhibition at 10 µM (STAT3 (aa 127-722)) [%]	inhibition at 100 µM (STAT3 (aa 127-722)) [%]	% of max binding at 10 μm (STAT3 (aa 127-722)) [%]	% of max binding at 100 μm (STAT3 (aa 127-722)) [%]	IC50 (MDA-MB-231 cells; [1]) [µM]	IC50 (MDA-MB-468 cells; [3]) [µM]	IC50 (MDA-MB-468 cells; [4]) [µM]	IC50 (MDA-MB-468 cells; [5]) [µM]	IC50 (MDA-MB-231 cells; [6]) [µM]	IC50 (MDA-MB-231 cells; [7]) [µM]	Structure (SMILES)	activity at 10 µM (G-CSF-stimulated pSTAT3; Homo sapiens, Kasumi1 cells) [%]	inhibition at 10 µM (G-CSF-stimulated pSTAT3; Homo sapiens) [%]	other results
29 to 71		67.3	9.5							O=C(O)COc1c(Br)cc(/C=C2\SC(=O)N(CC(=O)N3CCN(c4ccccc4)CC3)C2=O)cc1Br [SPEC-85, [2,6-dibromo-4-({2,4-dioxo-3-[2-oxo-2-(4-phenyl-1-piperazinyl)ethyl]-1,3-thiazolidin-5-ylidene}methyl)phenoxy]acetic acid]	2	20 to 80	Growth AD IC50 468 (MDA-MB-468 cells; [8]): no activity; Growth AI IC50 468 (MDA-MB-468 cells; [9]): no activity; inhibition of STAT3 binding to EGFR pY-peptide (STAT3 (aa 127-722)): 95%; Growth AD IC50 231 (MDA-MB-231 cells; [8]): no activity; Growth AI IC50 231 (MDA-MB-231 cells; [9]): no activity; IC50 (G-CSF-stimulated pSTAT3; Homo sapiens, Kasumi 1, Kasumi1 cells, G-CSF induced pSTAT3/GAPDH by Luminex): > 100 µM; G-CSF pSTAT3 IC50 (G-CSF-stimulated pSTAT3; [2]): almost no activity
29 to 71	67 to 93	116.8	28.3	15.7 ± 1.3						CC(=O)Nc1nc(C)c(-c2csc(Nc3ccccc3)n2)s1 [SPEC-93, N-(2-aniline-4′-methyl-4,5′-bi-1,3-thiazol-2′-yl)acetamide]	0	20 to 80	
		76.0	10.4							CC1(C)CC(=O)c2sc(NC(=O)CSc3nnc(SCC(=O)Nc4nc5c(s4)C(=O)CC(C)(C)C5)s3)nc2C1 [SPEC-103]			% of Control Stimulated pSTAT3 (G-CSF-stimulated pSTAT3; Kasumi1 cells): 46%
29 to 71	67 to 93	68.9	20.4	38.9	25.6 to 65.2	34.9 ± 1.3	44.7	25.6 to 65.2	39	Cc1cc(NS(=O)(=O)c2ccc(NC(=O)COc3ccc(C(C)(C)c4ccccc4)cc3)cc2)nc(C)n1 [SPEC-106, N-(4-{[(2,6-dimethyl-4-pyrimidinyl)amino]sulfonyl}phenyl)-2-[4-(1-methyl-1-phenylethyl)phenoxy]acetamide]	1	20 to 80	

Reference: US20220168322A1, “NOVEL STAT3 INHIBITORS IDENTIFIED BY STRUCTURE-BASED VIRTUAL SCREENING INCORPORATING SH2 DOMAIN FLEXIBILITY” (Board of Regents, The University of Texas System, priority 2018, published 2022)
